Here are results for one molecule from PMC3900681, “Flock House Virus RNA Polymerase Initiates RNA Synthesis De Novo and Possesses a Terminal Nucleotidyl Transferase Activity” (PLoS ONE, 2014).

In the test the target is T1, FHV protein A (MBP-Pro A) (Flock House virus, UniProt Q66929).
T1 construct: N-terminal MBP fusion (pMAL-c2X, EcoRI-SalI), tag kept; E. coli, amylose resin; ~155 kDa
Nature of the test: RdRP assay, DIG-labelled RNA product on denaturing gel. The format is biochemical. The settings on record: blocked (+)-RNA1_1-191 template, 250 uM DIG RNA Labelling Mix, 1 mM MnCl2, pH 8.0, 30 C, 90 min.

Molecules are shown by their SMILES.

T1 sequence (Q66929 whole entry, the tested form may be a part): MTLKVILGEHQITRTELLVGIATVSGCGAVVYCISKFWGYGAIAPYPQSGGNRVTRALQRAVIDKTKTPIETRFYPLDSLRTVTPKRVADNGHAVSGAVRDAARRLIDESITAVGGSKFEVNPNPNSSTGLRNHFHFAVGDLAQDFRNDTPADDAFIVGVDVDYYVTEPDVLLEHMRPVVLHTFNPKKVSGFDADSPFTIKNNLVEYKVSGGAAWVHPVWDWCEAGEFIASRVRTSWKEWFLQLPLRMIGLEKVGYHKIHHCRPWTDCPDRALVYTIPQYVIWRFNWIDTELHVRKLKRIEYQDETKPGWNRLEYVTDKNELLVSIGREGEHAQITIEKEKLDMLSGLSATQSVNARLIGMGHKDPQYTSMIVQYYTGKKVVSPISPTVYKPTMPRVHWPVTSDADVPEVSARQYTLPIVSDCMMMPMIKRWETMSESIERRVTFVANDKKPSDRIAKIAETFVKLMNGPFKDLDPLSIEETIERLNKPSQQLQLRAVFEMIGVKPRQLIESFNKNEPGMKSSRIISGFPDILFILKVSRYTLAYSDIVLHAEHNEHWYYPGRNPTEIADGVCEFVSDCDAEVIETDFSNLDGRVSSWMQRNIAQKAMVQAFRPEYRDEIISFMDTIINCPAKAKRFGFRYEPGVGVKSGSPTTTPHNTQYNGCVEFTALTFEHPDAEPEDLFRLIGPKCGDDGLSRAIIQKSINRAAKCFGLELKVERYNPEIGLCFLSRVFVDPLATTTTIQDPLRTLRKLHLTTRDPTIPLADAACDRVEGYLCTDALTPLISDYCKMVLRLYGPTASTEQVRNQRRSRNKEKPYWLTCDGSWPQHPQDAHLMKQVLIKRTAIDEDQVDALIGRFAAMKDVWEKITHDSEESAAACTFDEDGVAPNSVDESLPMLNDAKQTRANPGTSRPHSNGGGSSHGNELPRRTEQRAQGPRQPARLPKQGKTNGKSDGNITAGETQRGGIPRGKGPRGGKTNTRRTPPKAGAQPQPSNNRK

`O=C(O)CP(=O)(O)O` [PAA, phosphonoacetic acid]: the “inhibition, dose-response” value is listed as “PAA dramatically inhibited the RdRP activity of FHV protein A in a dose-response manner”.
